# Where two headings read alike, the source gives them in different places.
# Columns and labels:
# Assay type in all cases: in vivo
# [1] = tested on: duck salad (Heteranthera limosa); experiment: Test B flooded paddy test; conditions: Heteranthera limosa, Flood, 1000 g ai/ha; scale 0 to 100; read-out: Plant response rating, Ducksalad
# How it was run: (§1)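 Visual injury scoring (0 = no effect, 100 = complete control) versus controls made 13 to 15 days after treatment in the greenhouse. Test species were grown in flooded paddy to the 2-leaf stage: rice, barnyardgrass, umbrella sedge, duck salad.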
# [2] = tested on: umbrella sedge (Cyperus difformis); experiment: Test B flooded paddy test; conditions: Cyperus difformis, Flood, 1000 g ai/ha; scale 0 to 100; read-out: Plant response rating, Sedge, Umbrella
# How it was run: as §1
# rice (Oryza sativa) = experiment: Test B flooded paddy test; conditions: Oryza sativa, Flood, 1000 g ai/ha; scale 0 to 100; read-out: Plant response rating, Rice
# How it was run: as §1
# [3] = tested on: barnyardgrass (Echinochloa crus-galli); experiment: Test B flooded paddy test; conditions: Echinochloa crus-galli, Flood, 1000 g ai/ha; scale 0 (no effect) to 100 (complete control); read-out: Plant response rating, Barnyardgrass
# How it was run: as §1
# corn (Zea mays) = experiment: Test B pre/postemergence; conditions: Zea mays
# How it was run: (§2)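 Formulation: non-phytotoxic solvent blend with surfactant. Timing: preemergence on seeds, postemergence at 1- to 4-leaf (2–18 cm). Assessment: visual, 0–100 against controls, after 13–15 days' greenhouse growth.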
# [4] = tested on: cocklebur (Xanthium strumarium); experiment: Test B pre/postemergence; conditions: Xanthium strumarium; for pest or weed control at 125 g/ha: 125 g ai/ha; for pest or weed control at 500 g/ha: 500 g ai/ha
# How it was run: as §2
# [5] = tested on: Surinam grass (Brachiaria decumbens); experiment: Test B pre/postemergence; conditions: Urochloa decumbens; for pest or weed control at 125 g/ha: 125 g ai/ha; for pest or weed control at 500 g/ha: 500 g ai/ha
# How it was run: as §2
# [6] = tested on: wheat (Triticum aestivum); experiment: Test B pre/postemergence; conditions: Triticum aestivum; for plant injury at 125 g/ha: 125 g ai/ha; for plant injury at 500 g/ha: 500 g ai/ha
# How it was run: as §2
# [7] = tested on: giant foxtail (Setaria faberii); experiment: Test B pre/postemergence; conditions: Setaria faberi; for pest or weed control at 125 g/ha: 125 g ai/ha; for pest or weed control at 500 g/ha: 500 g ai/ha
# How it was run: as §2
# [8] = tested on: morningglory (Ipomoea coccinea); experiment: Test B pre/postemergence; conditions: Ipomoea; for pest or weed control at 125 g/ha: 125 g ai/ha; for pest or weed control at 500 g/ha: 500 g ai/ha
# How it was run: as §2
# [9] = tested on: velvetleaf (Abutilon theophrasti); experiment: Test B pre/postemergence; conditions: Abutilon theophrasti; for pest or weed control at 125 g/ha: 125 g ai/ha; for pest or weed control at 500 g/ha: 500 g ai/ha
# How it was run: as §2
# [10] = tested on: lambsquarters (Chenopodium album); experiment: Test B pre/postemergence; conditions: Chenopodium album; for pest or weed control at 125 g/ha: 125 g ai/ha; for pest or weed control at 500 g/ha: 500 g ai/ha
# How it was run: as §2
# [11] = tested on: crabgrass (Digitaria sanguinalis); experiment: Test B pre/postemergence; conditions: Digitaria sanguinalis; for pest or weed control at 125 g/ha: 125 g ai/ha; for pest or weed control at 500 g/ha: 500 g ai/ha
# How it was run: as §2
# [12] = tested on: barnyardgrass (Echinochloa crus-galli); experiment: Test B pre/postemergence; conditions: Echinochloa crus-galli; for pest or weed control at 125 g/ha: 125 g ai/ha; for pest or weed control at 500 g/ha: 500 g ai/ha
# How it was run: as §2
# [13] = tested on: pigweed (Amaranthus retroflexus); experiment: Test B pre/postemergence; conditions: Amaranthus retroflexus; for pest or weed control at 125 g/ha: 125 g ai/ha; for pest or weed control at 500 g/ha: 500 g ai/ha
# How it was run: as §2
# [14] = tested on: blackgrass (Alopecurus myosuroides); experiment: Test B postemergence; conditions: Alopecurus myosuroides, post-emergence
# How it was run: as §2
# wild oat (Avena fatua) = experiment: Test B postemergence; conditions: Avena fatua, post-emergence
# How it was run: as §2
structure (smiles),measurement,setting,value
"COC(=O)c1nc(C2CC2)nc(N)c1Br [Compound 2, methyl 6-amino-5-bromo-2-cyclopropyl-4-pyrimidinecarboxylate]",pest or weed control at 1000 g/ha,[1],90%
same,pest or weed control at 1000 g/ha,[2],90%
same,plant injury at 1000 g/ha,rice (Oryza sativa),60%
same,pest or weed control at 1000 g/ha,[3],90%
same,plant injury at 125 g/ha,"corn (Zea mays); post-emergence, Postemergence, 125 g ai/ha, scale 0 to 100 (0 no effect, 100 complete control), read-out: Corn plant response rating",20%
same,"Corn plant response rating (crop injury, 0 = no effect, 100 = complete kill) at 500 g/ha","corn (Zea mays); post-emergence, Postemergence, 500 g ai/ha, scale 0 to 100",80%
same,"Corn plant response rating (crop injury, 0 = no effect, 100 = complete kill) at 125 g/ha","corn (Zea mays); pre-emergence, Preemergence, 125 g ai/ha, scale 0 to 100 (0 no effect, 100 complete control)",0%
same,plant injury at 500 g/ha,"corn (Zea mays); pre-emergence, Preemergence, 500 g ai/ha, scale 0 to 100 (0 no effect, 100 complete control), read-out: Corn plant response rating",80%
same,pest or weed control at 125 g/ha,"[4]; post-emergence, Postemergence, scale 0 to 100 (0 no effect, 100 complete control), read-out: Cocklebur plant response rating",100%
same,pest or weed control at 500 g/ha,"[4]; post-emergence, Postemergence, scale 0 to 100, read-out: Plant response rating, Cocklebur",100%
same,pest or weed control at 125 g/ha,"[4]; pre-emergence, Preemergence, scale 0 to 100 (0 no effect, 100 complete control), read-out: Plant response rating, Cocklebur",90%
same,pest or weed control at 500 g/ha,"[4]; pre-emergence, Preemergence, scale 0 to 100 (0 no effect, 100 complete control), read-out: Cocklebur plant response rating",100%
same,pest or weed control at 125 g/ha,"[5]; post-emergence, Postemergence, scale 0 to 100 (0 no effect, 100 complete control), read-out: Surinam Grass plant response rating",90%
same,pest or weed control at 500 g/ha,"[5]; post-emergence, Postemergence, scale 0 to 100, read-out: Plant response rating, Surinam Grass",90%
same,pest or weed control at 125 g/ha,"[5]; pre-emergence, Preemergence, scale 0 to 100 (0 no effect, 100 complete control), read-out: Plant response rating, Surinam Grass",40%
same,pest or weed control at 500 g/ha,"[5]; pre-emergence, Preemergence, scale 0 to 100 (0 no effect, 100 complete control), read-out: Surinam Grass plant response rating",90%
same,plant injury at 125 g/ha,"[6]; post-emergence, Postemergence, scale 0 to 100 (0 no effect, 100 complete control), read-out: Wheat plant response rating",40%
same,plant injury at 500 g/ha,"[6]; post-emergence, Postemergence, scale 0 to 100, read-out: Plant response rating, Wheat",70%
same,plant injury at 125 g/ha,"[6]; pre-emergence, Preemergence, scale 0 to 100 (0 no effect, 100 complete control), read-out: Plant response rating, Wheat",60%
same,plant injury at 500 g/ha,"[6]; pre-emergence, Preemergence, scale 0 to 100 (0 no effect, 100 complete control), read-out: Wheat plant response rating",70%
same,pest or weed control at 125 g/ha,"[7]; post-emergence, Postemergence, scale 0 to 100 (0 no effect, 100 complete control), read-out: Foxtail, Giant plant response rating",70%
same,pest or weed control at 500 g/ha,"[7]; post-emergence, Postemergence, scale 0 to 100, read-out: Plant response rating, Foxtail, Giant",80%
same,pest or weed control at 125 g/ha,"[7]; pre-emergence, Preemergence, scale 0 to 100 (0 no effect, 100 complete control), read-out: Plant response rating, Foxtail, Giant",30%
same,pest or weed control at 500 g/ha,"[7]; pre-emergence, Preemergence, scale 0 to 100 (0 no effect, 100 complete control), read-out: Foxtail, Giant plant response rating",90%
same,pest or weed control at 125 g/ha,"[8]; post-emergence, Postemergence, scale 0 to 100 (0 no effect, 100 complete control), read-out: Morningglory plant response rating",100%
same,pest or weed control at 500 g/ha,"[8]; post-emergence, Postemergence, scale 0 to 100, read-out: Plant response rating, Morningglory",100%
same,pest or weed control at 125 g/ha,"[8]; pre-emergence, Preemergence, scale 0 to 100 (0 no effect, 100 complete control), read-out: Plant response rating, Morningglory",100%
same,pest or weed control at 500 g/ha,"[8]; pre-emergence, Preemergence, scale 0 to 100 (0 no effect, 100 complete control), read-out: Morningglory plant response rating",100%
same,pest or weed control at 125 g/ha,"[9]; post-emergence, Postemergence, scale 0 to 100 (0 no effect, 100 complete control), read-out: Velvetleaf plant response rating",60%
same,pest or weed control at 500 g/ha,"[9]; post-emergence, Postemergence, scale 0 to 100, read-out: Plant response rating, Velvetleaf",100%
same,pest or weed control at 125 g/ha,"[9]; pre-emergence, Preemergence, scale 0 to 100 (0 no effect, 100 complete control), read-out: Plant response rating, Velvetleaf",90%
same,pest or weed control at 500 g/ha,"[9]; pre-emergence, Preemergence, scale 0 to 100 (0 no effect, 100 complete control), read-out: Velvetleaf plant response rating",100%
same,pest or weed control at 125 g/ha,"[10]; post-emergence, Postemergence, scale 0 to 100 (0 no effect, 100 complete control), read-out: Lambsquarters plant response rating",100%
same,pest or weed control at 500 g/ha,"[10]; post-emergence, Postemergence, scale 0 to 100, read-out: Plant response rating, Lambsquarters",100%
same,pest or weed control at 125 g/ha,"[10]; pre-emergence, Preemergence, scale 0 to 100 (0 no effect, 100 complete control), read-out: Plant response rating, Lambsquarters",100%
same,pest or weed control at 500 g/ha,"[10]; pre-emergence, Preemergence, scale 0 to 100 (0 no effect, 100 complete control), read-out: Lambsquarters plant response rating",100%
same,pest or weed control at 125 g/ha,"[11]; post-emergence, Postemergence, scale 0 to 100 (0 no effect, 100 complete control), read-out: Crabgrass plant response rating",90%
same,pest or weed control at 500 g/ha,"[11]; post-emergence, Postemergence, scale 0 to 100, read-out: Plant response rating, Crabgrass",90%
same,pest or weed control at 125 g/ha,"[11]; pre-emergence, Preemergence, scale 0 to 100 (0 no effect, 100 complete control), read-out: Plant response rating, Crabgrass",90%
same,pest or weed control at 500 g/ha,"[11]; pre-emergence, Preemergence, scale 0 to 100 (0 no effect, 100 complete control), read-out: Crabgrass plant response rating",90%
same,pest or weed control at 125 g/ha,"[12]; post-emergence, Postemergence, scale 0 to 100 (0 no effect, 100 complete control), read-out: Barnyardgrass plant response rating",90%
same,pest or weed control at 500 g/ha,"[12]; post-emergence, Postemergence, scale 0 to 100, read-out: Plant response rating, Barnyardgrass",90%
same,pest or weed control at 125 g/ha,"[12]; pre-emergence, Preemergence, scale 0 to 100 (0 no effect, 100 complete control), read-out: Plant response rating, Barnyardgrass",70%
same,pest or weed control at 500 g/ha,"[12]; pre-emergence, Preemergence, scale 0 to 100 (0 no effect, 100 complete control), read-out: Barnyardgrass plant response rating",90%
same,pest or weed control at 125 g/ha,"[13]; post-emergence, Postemergence, scale 0 to 100 (0 no effect, 100 complete control), read-out: Pigweed plant response rating",100%
same,pest or weed control at 500 g/ha,"[13]; post-emergence, Postemergence, scale 0 to 100, read-out: Plant response rating, Pigweed",100%
same,pest or weed control at 125 g/ha,"[13]; pre-emergence, Preemergence, scale 0 to 100 (0 no effect, 100 complete control), read-out: Plant response rating, Pigweed",90%
same,pest or weed control at 500 g/ha,"[13]; pre-emergence, Preemergence, scale 0 to 100 (0 no effect, 100 complete control), read-out: Pigweed plant response rating",100%
same,pest or weed control at 125 g/ha,"[14]; 125 g ai/ha, scale 0 to 100 (0 no effect, 100 complete control), read-out: Blackgrass plant response rating",50%
same,pest or weed control at 500 g/ha,"[14]; 500 g ai/ha, scale 0 to 100, read-out: Plant response rating, Blackgrass",80%
same,pest or weed control at 125 g/ha,"wild oat (Avena fatua); 125 g ai/ha, scale 0 to 100 (0 no effect, 100 complete control), read-out: Oat, Wild plant response rating",40%
same,pest or weed control at 500 g/ha,"wild oat (Avena fatua); 500 g ai/ha, scale 0 to 100, read-out: Plant response rating, Oat, Wild",70%

# — US8802597B2, “Herbicidal pyrimidines” (E I du Pont de Nemours and Company, priority 2003, dated 2014)
